Series [1] relates to gastric mucosal cells. In words: Cytotoxicity of NSAIDs to gastric mucosal cells. In kind it is cell-based. The settings on record: order among the five NSAIDs of the same figure (FIG. 3 or FIG. 4). From the text: Specifically, the cytotoxicity of 10 clinically used NSAIDs as measured by the decrease in cell viability (i.e., cytotoxicity due to necrosis/apoptosis as measured by the decrease in cell viability) was compared to their membrane toxicity determined by the liposome model.

Series [2] is described as follows: Calcein leakage from calcein-encapsulating liposome in the presence of NSAIDs (membrane toxicity). The following applies: 30° C., 10 min, fluorescence at 520 nm; order among the five NSAIDs of the same figure.
Series [3] in a line: Calcein leakage from liposome in the presence of an NSAID and the gastric mucosa-protecting agent teprenone. The settings on record: for calcein leakage from liposome in the presence of NSAID and teprenone: teprenone 0, 10^-7 to 10^-4 M, 30° C., 10 min. Here is the method:
Teprenone (product name, Selbex (registered trademark)) was used as the gastric mucosa-protecting agent and was used at concentrations of 0 M (Control), 10^−7 M, 10^−6 M, 10^−5 M and 10^−4 M.
Each NSAID and teprenone at respective concentrations were added to the liposome solution obtained in Example 1. Each solution was incubated at 30° C. for 10 min. Subsequently, the fluorescence at 520 nm was measured for each solution to determine the calcein leakage from liposome (i.e., membrane toxicity).

Consider `Cc1ccc(-c2cc(C(F)(F)F)nn2-c2ccc(S(N)(=O)=O)cc2)cc1` [celecoxib], for which, in series [1], the “cytotoxicity to gastric mucosal cells (rank order)” value (from here on “cytotoxicity”) is “celecoxib>mefenamic acid>flufenamic acid>nimesulide>etodolac”.
Still for that read-out and setting: next, `O=C(O)Cc1ccccc1Nc1c(Cl)cccc1Cl` [diclofenac]: “indomethacin>diclofenac>flurbiprofen>ibuprofen>ketoprofen”; `CCc1cccc2c3c([nH]c12)C(CC)(CC(=O)O)OCC3` (stereo not drawn) [etodolac]: “celecoxib>mefenamic acid>flufenamic acid>nimesulide>etodolac”.
For `O=C(O)c1ccccc1Nc1cccc(C(F)(F)F)c1` [flufenamic acid], the “calcein leakage from the liposome (membrane toxicity), rank order” value in series [2] is reported as “decreased in the same order”. For the same molecule, in series [1], the “cytotoxicity” value is “celecoxib>mefenamic acid>flufenamic acid>nimesulide>etodolac”.
On to `CC(C(=O)O)c1ccc(-c2ccccc2)c(F)c1` (stereo not drawn) [flurbiprofen], for which the “cytotoxicity” value in series [1] is “indomethacin>diclofenac>flurbiprofen>ibuprofen>ketoprofen”.
For the molecule `COc1ccc2c(c1)c(CC(=O)O)c(C)n2C(=O)c1ccc(Cl)cc1` [indomethacin], in series [1], the “cytotoxicity” value is listed as “indomethacin>diclofenac>flurbiprofen>ibuprofen>ketoprofen”.
As to `CC(C(=O)O)c1cccc(C(=O)c2ccccc2)c1` (stereo not drawn) [ketoprofen], in series [2], the “calcein leakage from the liposome (membrane toxicity), rank order” value was “decreased in the same order”.
`Cc1cccc(Nc2ccccc2C(=O)O)c1C` [mefenamic acid]: the “cytotoxicity” value in series [1] was “celecoxib>mefenamic acid>flufenamic acid>nimesulide>etodolac”.
Still for that read-out and setting: next, `CS(=O)(=O)Nc1ccc([N+](=O)[O-])cc1Oc1ccccc1` [nimesulide]: “celecoxib>mefenamic acid>flufenamic acid>nimesulide>etodolac”.
Take teprenone: the “calcein leakage from liposome in the presence of NSAID and teprenone (repeat experiment)” value in series [3] (0.05 mM and 0.1 mM celecoxib) was “reduced the calcein leakage from the liposome”; in series [3] (2 mM and 10 mM diclofenac), “reduced the calcein leakage from the liposome”; in series [3] (4 mM and 8 mM indomethacin), “reduced the calcein leakage from the liposome”; in series [3] (40 mM and 60 mM ibuprofen), “reduced the calcein leakage from the liposome”. In addition, the “calcein leakage from liposome in the presence of NSAID and teprenone” value in series [3] (0.08 mM celecoxib), in series [3] (4 mM diclofenac), in series [3] (6 mM indomethacin) and in series [3] (20 mM ibuprofen) was “the calcein leakage decreases as the amount of teprenone is increased” in each case.

These data come from US20080113014A1, “Method for Screening for Compounds Safe for Gastric Mucosa” (LTT BIO-PHARMA CO., LTD., priority 2004, published 2008).
